For 2 molecules, Kd results are on record in article PMC12280060, “Design of linear and cyclic peptide binders from protein sequence information” (Communications Chemistry, 2025).

No end group written: not given here.

In test [1] the target is T1, semi-synthetic Ribonuclease (PDB ID 1SSC), immobilised as MBP-8xHis-1SSC (Bos taurus, UniProt P61823).
T1 construct: made in house; host or cells: E. coli BL21 (DE3) T1R
T1 sequence (P61823 27-138 limits assumed): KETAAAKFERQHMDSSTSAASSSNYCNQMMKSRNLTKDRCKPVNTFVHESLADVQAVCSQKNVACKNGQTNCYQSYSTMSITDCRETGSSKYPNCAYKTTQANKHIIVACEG
As to the kind of experiment: biochemical. The class given is binding.

In test [2] the target is T2, semi-synthetic Ribonuclease (PDB ID 1SSC), MBP-8xHis fusion construct (UniProt P61823 27-138).
T2 construct: also called MBP-8xHis-1SSC; psfRNAseA; source: E. coli BL21 (DE3) T1R, purified (IMAC, size exclusion chromatography)
T2 sequence: T1 sequence (P61823 27-138 limits assumed)
The test can be described thus: SPR; MBP-8xHis-1SSC immobilised to about 12000 RU by amine coupling on a CM5 chip; peptides as analytes, single-cycle kinetics, 2 nM to 20 uM; 25 °C; HBS-EP+ (10 mM HEPES pH 7.4, 3 mM EDTA, 150 mM NaCl, 0.05% Tween-20); Biacore 8K; 1:1 binding model. The settings on record: both partners purified. A general note: In SPR one partner is held on a chip, and binding of the other changes the refractive index at the surface.

Consider PYVPVHFDASV [PYVPVHFDASV], for which the Kd (as a rule, the equilibrium constant for the complex coming apart) in test [1] came to 1.22 µM.

B1: known peptide binder (11 residues) of the semi-synthetic Ribonuclease, PYVPVHFDASV (peptide)
peptide: PYVPVHFDASV
notes: also called WT; positive control; source: synthetic peptide
Molecule B1 displayed a Kd in test [2] of 1.2 µM.
